In US11931343B2 (ARCUS BIOSCIENCES, INC., priority 2018, dated 2024):

Molecular target: T1, human CD73 (Homo sapiens, UniProt P21589)
T1 sequence (P21589 27-549): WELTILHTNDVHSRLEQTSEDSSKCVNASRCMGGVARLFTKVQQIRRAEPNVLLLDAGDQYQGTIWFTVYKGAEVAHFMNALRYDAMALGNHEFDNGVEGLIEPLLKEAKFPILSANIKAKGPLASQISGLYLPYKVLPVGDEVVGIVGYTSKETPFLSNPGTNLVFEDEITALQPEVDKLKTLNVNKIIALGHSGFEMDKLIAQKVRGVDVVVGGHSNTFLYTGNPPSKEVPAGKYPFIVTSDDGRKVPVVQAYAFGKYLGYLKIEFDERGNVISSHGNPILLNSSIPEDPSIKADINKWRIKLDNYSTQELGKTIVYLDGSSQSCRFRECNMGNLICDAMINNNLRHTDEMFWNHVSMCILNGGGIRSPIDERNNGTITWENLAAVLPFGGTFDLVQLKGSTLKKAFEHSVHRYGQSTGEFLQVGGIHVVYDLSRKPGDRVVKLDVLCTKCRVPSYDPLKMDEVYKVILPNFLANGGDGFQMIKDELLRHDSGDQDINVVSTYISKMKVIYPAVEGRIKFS
Assay: Inhibition of Ecto-5′-nucleotidase (CD73) activity in CHO-CD73 cells, phosphate release from AMP
Assay type: cell-based
Details: CHO-K1 cells stably transfected with human CD73; 25 μM AMP; 50 minutes, 37° C.; read-out: Potency: CD73 IC50

Row | IC50 | Compound
1 | 100 to 1000 nM | N#Cc1ccc(Cn2nccc2-c2cc(C#N)c3nnn(-c4ccc5cn[nH]c5c4)c3c2)cc1 [Example 114]
2 | 100 to 1000 nM | Cc1cnc(Cn2nccc2-c2cc(Cl)c3nnn(-c4ccc5cn[nH]c5c4)c3c2)c(F)c1 [Example 74]
3 | > 1000 nM | N#Cc1ccc(Cn2nccc2-c2cc3c(cn2)cnn3-c2ccc3cn[nH]c3c2)cc1 [Example 147]
4 | < 100 nM | Fc1cc(Cl)ccc1Cn1nccc1-c1cc(Cl)c2nnn(-c3ccc4cn[nH]c4c3)c2c1 [Example 83]
5 | 100 to 1000 nM | N#Cc1ccc(Cn2nccc2-c2cnc3c(N)nn(-c4ccc5[nH]c(=O)[nH]c5c4)c3c2)cc1 [Example 219]
6 | > 1000 nM | N#Cc1ccc(Cn2nccc2-c2cnc3cnn(-c4ccc5cn[nH]c5c4)c3c2)cc1 [Example 152]
7 | 100 to 1000 nM | O=c1[nH]c2ccc(-n3nnc4c(Cl)cc(-c5ccnn5Cc5ccc(F)cn5)cc43)cc2[nH]1 [Example 200]
8 | 100 to 1000 nM | O=c1[nH]c2ccc(-n3nnc4cnc(-c5ccnn5Cc5ccc(Cl)cc5F)cc43)cc2[nH]1 [Example 193]
9 | < 100 nM | Cc1cc(C#N)ccc1Cn1nccc1-c1cc(Cl)c2nnn(-c3ccc4[nH]c(=O)[nH]c4c3)c2c1 [Example 270]
10 | > 1000 nM | N#Cc1ccc(Cn2nccc2-c2cc(F)c3nnn(-c4ccc5[nH]c(=O)[nH]c5c4)c3c2)c(C(=O)N2CC(O)C2)c1 [Example 308]
11 | 100 to 1000 nM | CC(c1ccc(C#N)cc1F)n1nccc1-c1cc(Cl)c2nnn(-c3ccc4[nH]c(=O)[nH]c4c3)c2c1 (centres unmarked) [Example 418]
12 | 100 to 1000 nM | Cc1ccc(Cn2nccc2-c2cc(F)c3nnn(-c4ccc5cn[nH]c5c4)c3c2)cc1 [Example 100]
13 | > 1000 nM | N#Cc1ccc(Cn2nccc2-c2cnc3c(NCCO)nn(-c4ccc5cn[nH]c5c4)c3c2)cc1 [Example 420]
14 | 100 to 1000 nM | Cc1cc2nnn(-c3ccc4cn[nH]c4c3)c2cc1-c1ccnn1Cc1ccc(C#N)cc1 [Example 384]
15 | > 1000 nM | N#Cc1ccc(Cn2nccc2-c2ccc3cnc(-c4ccc5[nH]c(=O)[nH]c5c4)n3c2)c(F)c1 [Example 335]
16 | 100 to 1000 nM | Cc1cccc(-n2nccc2-c2cc3c(cc2F)nnn3-c2ccc3cn[nH]c3c2)c1 [Example 393]
17 | > 1000 nM | C=CCNc1nn(-c2ccc3cn[nH]c3c2)c2cc(-c3ccnn3Cc3ccc(C#N)cc3)cnc12 [Example 417]
18 | > 1000 nM | O=c1[nH]c2cc(-n3nnc4c(F)cc(-c5ccnn5Cc5ccc(Cl)cn5)cc43)ccc2o1 [Example 161]
19 | > 1000 nM | Cc1cccc(-n2nccc2-c2cc3c(cc2C)nnn3-c2ccc3cn[nH]c3c2)c1 [Example 406]
20 | > 1000 nM | N#Cc1ccc(Cn2nccc2-c2cc(F)c3nnn(-c4ccc5[nH]c(=O)[nH]c5c4)c3c2)c(CN[C@H]2CCOC2)c1 [Example 277]
21 | > 1000 nM | O=c1[nH]c2ccc(-n3nnc4c(F)cc(-c5ccnn5Cc5ccncn5)cc43)cc2[nH]1 [Example 212]
22 | 100 to 1000 nM | Cc1ccc(C(C)n2nccc2-c2cc(F)c3nnn(-c4ccc5cn[nH]c5c4)c3c2)nc1 (centres unmarked) [Example 396]
23 | > 1000 nM | O=C1CCC(c2cc(F)c3nnn(-c4ccc5cn[nH]c5c4)c3c2)N1Cc1ccc(Cl)cc1Cl (centres unmarked) [Example 143]

Row | IC50 | Compound
24 | 100 to 1000 nM | Cc1ccc(Cn2nccc2-c2cc(Cl)c3nnn(-c4ccc5[nH]c(=O)[nH]c5c4)c3c2)c(Cl)c1 [Example 234]
25 | < 100 nM | Clc1ccc(Cn2nccc2-c2cc3c(cn2)nnn3-c2ccc3cn[nH]c3c2)c(Cl)c1 [Example 142]
26 | 100 to 1000 nM | CS(=O)(=O)c1cc(C#N)ccc1Cn1nccc1-c1cc(F)c2nnn(-c3ccc4[nH]c(=O)[nH]c4c3)c2c1 [Example 260]
27 | 100 to 1000 nM | Brc1ccc(Cn2nccc2-c2ccc3nnn(-c4ccc5cn[nH]c5c4)c3c2)cc1 [Example 90]
28 | 100 to 1000 nM | O=c1[nH]c2ccc(-n3nnc4c(F)cc(-c5ccnn5Cc5ccc(Cl)cc5F)cc43)cc2[nH]1 [Example 191]
29 | 100 to 1000 nM | Cc1cccc(-n2nccc2-c2cc(Cl)c3nnn(-c4ccc5[nH]c(=O)[nH]c5c4)c3c2)c1 [Example 217]
30 | < 100 nM | N#Cc1ccc(Cn2nccc2-c2cc(F)c3nnn(-c4cc5[nH]ncc5cc4F)c3c2)cc1 [Example 144]
31 | > 1000 nM | N#Cc1ccc(Cn2nccc2-c2cc(F)c3nnn(-c4ccc(O)cc4)c3c2)cc1 [Example 354]
32 | 100 to 1000 nM | N#Cc1ccc(Cn2nccc2-c2cc(F)c3nnn(-c4ccc5cn[nH]c5c4F)c3c2)cc1 [Example 410]
33 | > 1000 nM | c1cc(-c2ccc3nnn(-c4ccc5cn[nH]c5c4)c3c2)n(CC2CCCCO2)n1 (centres unmarked) [Example 93]
34 | > 1000 nM | O=c1[nH]c2ccc(-n3ncc4cnc(-c5ccnn5Cc5ccc(Cl)cn5)cc43)cc2[nH]1 [Example 153]
35 | 100 to 1000 nM | Fc1cnc(Cn2nccc2-c2cc(Cl)c3nnn(-c4ccc5cn[nH]c5c4)c3c2)c(Cl)c1 [Example 81]
36 | 100 to 1000 nM | O=c1[nH]c2ccc(-n3nnc4c(F)cc(-c5ccnn5Cc5cccc(F)c5Cl)cc43)cc2[nH]1 [Example 282]
37 | 100 to 1000 nM | Fc1cc(-c2ccnn2Cc2ccccc2Cl)cc2c1nnn2-c1ccc2cn[nH]c2c1 [Example 65]
38 | > 1000 nM | Fc1cc(-c2ccnn2-c2ccc3[nH]ncc3c2)cc2c1nnn2-c1ccc2cn[nH]c2c1 [Example 394]
39 | 100 to 1000 nM | Cc1coc(-c2cc(C#N)ccc2Cn2nccc2-c2cc(F)c3nnn(-c4ccc5[nH]c(=O)[nH]c5c4)c3c2)n1 [Example 320]
40 | 100 to 1000 nM | CNC(=O)c1cc(C#N)ccc1Cn1nccc1-c1cc(F)c2nnn(-c3ccc4[nH]c(=O)[nH]c4c3)c2c1 [Example 307]
41 | 100 to 1000 nM | N#Cc1ccc(Cn2nccc2-c2cc(F)c3c(N)nn(-c4ccc5cn[nH]c5c4)c3c2)cc1 [Example 389]
42 | 100 to 1000 nM | N#Cc1ccc(Cn2nccc2-c2cc3c(cnn3-c3ccc4cn[nH]c4c3)c(=O)[nH]2)c(F)c1 [Example 338]
43 | < 100 nM | N#Cc1ccc(Cn2nccc2-c2cc(F)c3nnn(-c4ccc5[nH]c(=O)[nH]c5c4)c3c2)c(CO)c1 [Example 297]
44 | 100 to 1000 nM | Clc1cccc(-n2nccc2-c2cc3c(cc2Cl)nnn3-c2ccc3cn[nH]c3c2)c1 [Example 404]
45 | 100 to 1000 nM | O=c1[nH]c2ccc(-n3nnc4c(Cl)cc(-c5ccnn5Cc5ccc(Cl)cc5Cl)cc43)cc2[nH]1 [Example 186]
46 | 100 to 1000 nM | Nc1cc(-n2nnc3c(Cl)cc(-c4ccnn4Cc4ccc(Cl)cc4Cl)cc32)ccn1 [Example 139]

Row | IC50 | Compound
47 | 100 to 1000 nM | N#Cc1ccc(Cn2nccc2-c2cc(F)c3nnn(-c4ccc5[nH]c(=O)[nH]c5c4)c3c2)c(-c2ccn[nH]2)c1 [Example 304]
48 | 100 to 1000 nM | N#Cc1ccc(Cn2nccc2-c2cc3c(cc2CO)nnn3-c2ccc3cn[nH]c3c2)cc1 [Example 421]
49 | > 1000 nM | N#Cc1ccc(Cn2nccc2-c2cc(F)c3nnn(-c4ccc5[nH]c(=O)[nH]c5c4)c3c2)c(CN2CCOCC2)c1 [Example 268]
50 | 100 to 1000 nM | C=C(C)c1cc(C#N)ccc1Cn1nccc1-c1cc(F)c2nnn(-c3ccc4[nH]c(=O)[nH]c4c3)c2c1 [Example 264]
51 | 100 to 1000 nM | N#Cc1ccc(Cn2nccc2-c2cc3c(c(N)nn3-c3ccc4cn[nH]c4c3)[n+]([O-])c2)cc1 [Example 362]
52 | > 1000 nM | O=c1[nH]c2ccc(-n3nnc4c(F)cc(-c5ccnn5Cc5ccc6[nH]cnc6c5)cc43)cc2[nH]1 [Example 257]
53 | 100 to 1000 nM | CS(=O)(=O)c1cccc(-n2nccc2-c2cc(Cl)c3nnn(-c4ccc5[nH]c(=O)[nH]c5c4)c3c2)c1 [Example 301]
54 | > 1000 nM | Fc1cc(-c2ccnn2Cc2ccccc2)cc2c1nnn2-c1cc2[nH]ncc2cn1 [Example 138]
55 | > 1000 nM | CN(C)S(=O)(=O)Nc1nn(-c2ccc3cn[nH]c3c2)c2cc(-c3ccnn3Cc3ccc(C#N)cc3)cnc12 [Example 424]
56 | 100 to 1000 nM | Fc1cc(Cl)cnc1Cn1nccc1-c1cc(Cl)c2nnn(-c3ccc4cn[nH]c4c3)c2c1 [Example 104]
57 | 100 to 1000 nM | CC(c1ccc(Cl)cn1)n1nccc1-c1cc(F)c2nnn(-c3ccc4cn[nH]c4c3)c2c1 (centres unmarked) [Example 377]
58 | > 1000 nM | N#Cc1ccc(Cn2nccc2-c2cnc3c(NCC(O)CO)nn(-c4ccc5cn[nH]c5c4)c3c2)cc1 (centres unmarked) [Example 422]
59 | 100 to 1000 nM | Clc1cnc(Cn2nccc2-c2ccc3nnn(-c4ccc5cn[nH]c5c4)c3c2)c(Cl)c1 [Example 79]
60 | 100 to 1000 nM | O=c1[nH]c2ccc(-n3nnc4c(F)cc(-c5ccnn5Cc5ccc(Cl)c(F)c5)cc43)cc2[nH]1 [Example 192]
61 | 100 to 1000 nM | Cc1cc(C#N)ccc1Cn1nccc1-c1cc(F)c2nnn(-c3ccc4[nH]c(=O)[nH]c4c3)c2c1 [Example 302]
62 | 100 to 1000 nM | Cn1nc(-c2ccc3[nH]c(=O)[nH]c3c2)c2cc(-c3ccnn3Cc3ccc(C#N)cc3)cnc21 [Example 316]
63 | > 1000 nM | Fc1c(-c2ccnn2Cc2ccccc2)ccc2nnn(-c3ccc4cn[nH]c4c3)c12 [Example 130]
64 | < 100 nM | Clc1ccc(Cn2nccc2-c2cc(Cl)c3nnn(-c4ccc5cn[nH]c5c4)c3c2)c(Cl)c1 [Example 59]
65 | < 100 nM | Cc1ccc(Cn2nccc2-c2cc(Cl)c3nnn(-c4ccc5cn[nH]c5c4)c3c2)c(Cl)c1 [Example 89]
66 | > 1000 nM | O=c1[nH]c2ccc(-n3nnc4c(F)cc(-c5ccnn5Cc5ncccn5)cc43)cc2[nH]1 [Example 209]
67 | 100 to 1000 nM | O=c1[nH]c2ccc(-n3nnc4c(F)cc(-c5ccnn5Cc5ccc(Cl)cc5)cc43)cc2[nH]1 [Example 231]
68 | > 1000 nM | N#Cc1ccc(Cn2nccc2-c2cn3c(-c4ccc5[nH]c(=O)[nH]c5c4)cnc3cn2)cc1 [Example 311]
